Reference: patent US11554115B2, “Quinoline derivative for treatment of triple-negative breast cancer” (CHIA TAI TIANQING PHARMACEUTICAL GROUP CO., LTD., priority 2018, dated 2023)
Where a name gives a salt, the structure may show the parent alone.

Test system: advanced or metastatic triple-negative breast cancer (ER-negative, PR-negative, HER2-negative)
Test: Clinical trial in patients with advanced or metastatic triple-negative breast cancer
Assay type: in vivo, human
Settings: patients aged ≥18 years; capsules alone or in combination with chemotherapy; 12 mg once daily, two-week treatment, one-week rest

COc1cc2c(Oc3ccc4[nH]c(C)cc4c3F)ccnc2cc1OCC1(N)CC1 [1-[[[4-(4-fluoro-2-methyl-1H-indol-5-yl)oxy-6-methoxyquinolin-7-yl]oxy]methyl]cyclopropylamine dihydrochloride]
efficacy for the treatment of triple-negative breast cancer: effective
